# According to patent US12152010B2, “Preparation method for photo-activatable aggregation-induced emission probe with in-situ generation capability” (South China University of Technology, priority 2018, dated 2024):
# Experiments:
# HeLa cells [1] = test: Photo-activatable fluorescence imaging under 405 nm laser in HeLa cells; format: cell-based; conditions: in-situ generated compound
# MCF-7 cells = test: Photo-activatable fluorescence imaging under 405 nm laser in MCF-7 cells; format: cell-based; conditions: in-situ generated compound
# [2] = system: HeLa cells or MCF-7 cells; test: Co-dyeing experiments with commercial organelle dyes; format: cell-based; conditions: co-dyeing with Nile Red, BODIPY493/503 or LysoTracker Red
# HeLa cells [3] = test: Photo-controlled high-spatiotemporal-resolution imaging, 780 nm two-photon laser, multicellular environment; format: cell-based; conditions: under photo-control
# Excerpt: In-situ generated compound III could be used for photo-controlled high-spatiotemporal-resolution imaging. […] The photo-controlled high-spatiotemporal-resolution imaging capability of in-situ generated compound III was particularly useful for monitoring the movement of organelles and studying the physiological functions of organelles in complex physiological environments.
# [4] = Fluorescence emission in tetrahydrofuran/water or tetrahydrofuran/toluene mixed solutions (aggregation-induced emission); format: physicochemical; conditions: tetrahydrofuran:water (IV-1 509 nm, IV-2 570 nm) or tetrahydrofuran:toluene (IV-3 532 nm), 10^−5 mol/L
# Excerpt: (§1) Mixing tetrahydrofuran and water according to different volume ratios (tetrahydrofuran:water=100:0, 90:10, 80:20, 70:30, 60:40, 50:50, 40:60, 30:70, 20:80, 10:90, 8:92, 6:94, 4:96, 2:98, 1:99) to form mixed solutions with different water contents; dissolving compound IV-1 (i.e., method 2-compound IV-1) into these mixed solutions to make the concentration of the compound at 10′ mol/L, and then detecting the fluorescence emission spectrum, with the results as shown in FIG. 1.
# as §1, with “IV-2” for “IV-1”, “IV-2)” for “IV-1)”, “[…]” for “10′”, “2.” for “1.”
# The in-situ generated compound IV-2 (in-situ compound IV-2) had the same photophysical properties as method 2-compound IV-2.
# Mixing tetrahydrofuran and toluene according to different volume ratios (tetrahydrofuran:toluene=100:0, 90:10, 80:20, 70:30, 60:40, 50:50, 40:60, 30:70, 20:80, 10:90, 5:95, 1:99) to form mixed solutions with different toluene contents; dissolving compound IV-3 (i.e., method 2-compound IV-3) into these mixed solutions to make the concentration of the compound at […], and then detecting the fluorescence emission spectrum, with the results as shown in FIG. 3.
# The in-situ generated compound IV-3 (in-situ compound IV-3) had the same photophysical properties as method 2-compound IV-3.
# [5] = Quantum yield, fluorescence lifetime, absorption and emission in tetrahydrofuran solution and solid (thin film) state; format: physicochemical; conditions: for Increase in fluorescence lifetime / Increase in quantum yield: thin film state relative to tetrahydrofuran solution
# Excerpt: By measuring the quantum yield and fluorescence lifetime of compounds IV-1 (method 2-compound IV-1), IV-2 (method 2-compound IV-2) and IV-3 (method 2-compound IV-3) in tetrahydrofuran solution and solid state (thin film state)) (Table 1), the following results were found relative to the cases in the tetrahydrofuran solution: compound IV-1 in the thin film state increased by 94.4 times in the quantum yield, and increased by 6.0 times in the fluorescence lifetime; compound IV-2 in the thin film state increased by 33.4 times in the quantum yield, and increased by 5.2 times in the fluorescence lifetime; compound IV-3 in the thin film state increased by 25.8 times in the quantum yield, and increased by 4.1 times in the fluorescence lifetime; therefore, the aggregation-induced emission property of compound IV was confirmed. […] The in-situ compounds IV-1 to IV-3 also had the photophysical properties in Table 1.
# [6] = tetrahydrofuran solution state (10^−5 mol/L)
Compound,Emission wavelength ([5]; solid state) [nm],Fluorescence lifetime ([5]; solid state) [ns],Quantum yield ([5]; solid state) [%],"Absorption wavelength [5, 6] [nm]","Emission wavelength [5, 6] [nm]","Fluorescence lifetime [5, 6] [ns]","Quantum yield [5, 6] [%]",Increase in fluorescence lifetime [5] [times],Increase in quantum yield [5] [times],Fluorescence intensity increase (HeLa cells [1]; irradiation time 10 min),Fluorescence intensity increase (MCF-7 cells; irradiation time 10 min),Organelle specificity of photo-activatable fluorescence imaging [2],Photo-controlled sequential activation of organelles in different cells (HeLa cells [3]),Fluorescence intensity increase (HeLa cells [1]; scanning time 50 s),Fluorescence intensity increase (MCF-7 cells; scanning time 50 s),Ketoluminescence behaviour with increasing poor-solvent content [4]
"Oc1ccccc1C1Nc2ccccc2S1 (centres unmarked) [Compound III-1, 2-(2,3-dihydrobenzo[d]thiazol-2-yl)phenol]",,,,,,,,,,approximately 5.5 times of the initial value,~9.0 times of the initial value,lipid droplet specific photo-activatable fluorescence imaging,,,,
"COc1ccc(O)c(C2Nc3ccccc3S2)c1 (centres unmarked) [Compound III-2, 2-(2,3-dihydrobenzo[d]thiazol-2-yl)-4-methoxyphenol]",,,,,,,,,,approximately 53 times of the initial value,~18 times of the initial value,lipid droplet specific photo-activatable fluorescence imaging,could sequentially activate lipid droplets in different cells,,,
"Oc1ccc(CN2CCOCC2)cc1C1Nc2ccccc2S1 (centres unmarked) [Compound III-3, 2-(2,3-dihydrobenzo[d]thiazol-2-yl)-4-(morpholinomethyl)phenol]",,,,,,,,,,,,lysosomal specific photo-activatable fluorescence imaging,could sequentially activate lysosomes in different cells,approximately 6.2 times of the initial value,~4.5 times of the initial value,

# The next lines start with results.
Emission wavelength ([5]; solid state) [nm],Fluorescence lifetime ([5]; solid state) [ns],Quantum yield ([5]; solid state) [%],"Absorption wavelength [5, 6] [nm]","Emission wavelength [5, 6] [nm]","Fluorescence lifetime [5, 6] [ns]","Quantum yield [5, 6] [%]",Increase in fluorescence lifetime [5] [times],Increase in quantum yield [5] [times],Compound,Fluorescence intensity increase (HeLa cells [1]; irradiation time 10 min),Fluorescence intensity increase (MCF-7 cells; irradiation time 10 min),Organelle specificity of photo-activatable fluorescence imaging [2],Photo-controlled sequential activation of organelles in different cells (HeLa cells [3]),Fluorescence intensity increase (HeLa cells [1]; scanning time 50 s),Fluorescence intensity increase (MCF-7 cells; scanning time 50 s),Ketoluminescence behaviour with increasing poor-solvent content [4]
509,4.96,66.1,334,452,0.83,0.7,6.0,94.4,"Oc1ccccc1-c1nc2ccccc2s1 [Compound IV-1, 2-(benzo[d]thiazol-2-yl)phenol]",,,,,,,showing the aggregation-induced emission property
570,4.88,40.1,362,402,0.94,1.2,5.2,33.4,"COc1ccc(O)c(-c2nc3ccccc3s2)c1 [Compound IV-2, 2-(benzo[d]thiazol-2-yl)-4-methoxyphenol]",,,,,,,showing the aggregation-induced emission property
532,6.39,28.4,341,445,1.56,1.1,4.1,25.8,"Oc1ccc(CN2CCOCC2)cc1-c1nc2ccccc2s1 [Compound IV-3, 2-(benzo[d]thiazol-2-yl)-4-(morpholinomethyl)phenol]",,,,,,,showing the aggregation-induced emission property
